# Patent US20250009739A1, “METHOD OF TREATING A SKIN DISORDER” (PHAMRI Norden AB, priority 2021, published 2025)
# Tests used:
# ENaC [1] = conditions: cited from earlier work
# NCX = NCX (Homo sapiens, UniProt P32418); conditions: cited from earlier work
# CXCL1 = CXCL1 expression in TNFα-stimulated primary keratinocytes (Luminex on supernatant); format: cell-based, human; conditions: CXCL1, IL1a and TNFα in TNFα-stimulated keratinocytes; concentration where ENaC, NCX1 and NHE1 were predicted to be targeted
# Experimental: Primary keratinocytes were stimulated with TNFα (5 ng/ml) for 24 hours and expression of pro-inflammatory cytokines involved in inflammatory skin disease was analyzed with benzamil as inhibitor and compared to inhibitors with different affinity to ENaC/NCX1/NHE1 (amiloride), ENaC but not NCX1 and NHE1 (Camostat mesilate), NCX1 but not ENaC or NHE1 (KB-R7943) or NHE but not ENaC or NCX1 (zoniporide).
# Primary human keratinocytes were thawed according to manufacturer's instructions, washed in growth medium (GM) and viability assessed via Tryphan blue. Cells were incubated at 37° C. with 5% CO2. After confluence, a stock cell solution of 1.5×10^5 cells/ml was prepared in GM. 200 μL of the cell suspension was added to each well of respective 96 well plates for a total of 3×10^4 cells/well. Cells were incubated at 37° C. with 5% CO2 overnight for adherence. After overnight incubation, cell culture media was removed from each well and 100 μL of fresh GM was added to each well. Appropriate concentrations of inhibitor compound, vehicle and TNFα was prepared in GM of a final volume of 3 ml. […]
# 100 μl of each treatment was added to appropriate wells. […] 24 hours post TNFα stimulation, the fluorescence of each well was read at 544/590 nm for cell viability. […] The inflammatory cytokines TNFα, CXCL1 and IL1a in the cell culture supernatants were analysed by Luiminex. […]
# [2] = system: Primary human keratinocytes; test: Proliferation / cell viability (alamar blue) of TNFα-stimulated keratinocytes; format: cell-based; conditions: low-level inflamed keratinocyte conditions (TNFα 5 ng/ml, 24 hours)
# Experimental: Primary human keratinocytes were thawed according to manufacturer's instructions, washed in growth medium (GM) and viability assessed via Tryphan blue. Cells were incubated at 37° C. with 5% CO2. After confluence, a stock cell solution of 1.5×10^5 cells/ml was prepared in GM. 200 μL of the cell suspension was added to each well of respective 96 well plates for a total of 3×10^4 cells/well. Cells were incubated at 37° C. with 5% CO2 overnight for adherence. After overnight incubation, cell culture media was removed from each well and 100 μL of fresh GM was added to each well. Appropriate concentrations of inhibitor compound, vehicle and TNFα was prepared in GM of a final volume of 3 ml. Concentrations of non-benzamil inhibitors were chosen to be 0.1×, 1× and 10× the IC50 for each primary target. […] Concentration of TNF alpha was selected to recapitulate a low level of pro-inflammatory cytokine stimulation.
# 100 μl of each treatment was added to appropriate wells. Samples were incubated for 24 hours. 20 hours post TNFα stimulation, 20 μL of alamar blue was added for each well. Cells were incubated for 4 hours at 37° C. 24 hours post TNFα stimulation, the fluorescence of each well was read at 544/590 nm for cell viability. […] The inflammatory cytokines TNFα, CXCL1 and IL1a in the cell culture supernatants were analysed by Luiminex. […]
# ENaC [3] = conditions: cited from earlier work; remark: listed apart in the source
# [4] = human oral dosing 10 mg, adults; cited from earlier work
smiles,measurement,setting,value
NC(=Nc1ccccc1)NC(=O)c1nc(Cl)c(N)nc1N [phenamil],in vivo efficacy specifically on ENaC relative to amiloride,ENaC [1],equivalent to amiloride
N=C(N)SCCc1ccc(OCc2ccc([N+](=O)[O-])cc2)cc1 [KB-R7943],IC50,NCX,5 to 10 µM
NC(=NCc1ccccc1)NC(=O)c1nc(Cl)c(N)nc1N [benzamil],efficacious concentration for reducing cytokine expression,CXCL1,above 1 uM
same,proliferation,[2]; FIG. 6,does not reduce proliferation
same,proliferation,"[2]; FIG. 6, listed as Benzamil",did not reduce proliferation
"CN(C)C(=O)COC(=O)Cc1ccc(OC(=O)c2ccc(NC(=N)N)cc2)cc1 [Camostat Mesilate, Camostat mesilate]",IC50,ENaC [3],50 nM
N=C(N)NC(=O)c1nc(Cl)c(N)nc1N [amiloride],serum concentration,[4],20.6 ng/mL
same,IC50,ENaC [3],100 nM
